# From paper PMC6345968, “Structural basis for species-selective targeting of Hsp90 in a pathogenic fungus” (Nature Communications, 2019)
# Read-outs that look alike come from different tables or passages of the source.
# Tests used:
# human Hsp90 NBD = human Hsp90 NBD (Homo sapiens, UniProt P08238); details: 0.1 nM Cy3-GdA, Human NBD-Hsp90 (10 nM); for FP signal (raw) / FP signal as fraction of no-compound (0 uM) control: Experiments 1-3
# [1] = biological target: T1, Hsp90 in C. albicans (SC5314) lysate (Candida albicans, UniProt P46598); experiment: biochemical; assay type: binding; details: SC5314 lysate
# T1 construct: endogenous in cells; host or cells: C. albicans SC5314 whole-cell lysate
# T1 sequence (P46598 whole entry): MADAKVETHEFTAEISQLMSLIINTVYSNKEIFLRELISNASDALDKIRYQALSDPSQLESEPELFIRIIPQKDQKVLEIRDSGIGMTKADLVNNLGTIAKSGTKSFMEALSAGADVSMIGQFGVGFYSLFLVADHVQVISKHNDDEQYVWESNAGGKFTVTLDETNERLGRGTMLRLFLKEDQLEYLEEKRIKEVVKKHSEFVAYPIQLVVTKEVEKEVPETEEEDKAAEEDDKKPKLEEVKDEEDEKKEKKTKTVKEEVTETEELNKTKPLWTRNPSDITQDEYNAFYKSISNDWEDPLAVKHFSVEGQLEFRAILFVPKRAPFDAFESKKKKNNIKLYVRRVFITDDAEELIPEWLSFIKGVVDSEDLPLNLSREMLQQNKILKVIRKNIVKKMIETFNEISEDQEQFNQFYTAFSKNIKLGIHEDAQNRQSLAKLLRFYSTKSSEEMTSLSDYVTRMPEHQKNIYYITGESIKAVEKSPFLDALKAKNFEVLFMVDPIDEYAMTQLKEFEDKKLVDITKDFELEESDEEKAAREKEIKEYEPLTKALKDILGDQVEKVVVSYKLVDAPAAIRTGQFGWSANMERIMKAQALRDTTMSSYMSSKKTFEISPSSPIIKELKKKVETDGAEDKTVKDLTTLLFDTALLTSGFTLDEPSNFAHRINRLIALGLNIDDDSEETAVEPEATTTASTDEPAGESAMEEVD
# C. albicans Hsp90 NBD = biological target: T2, C. albicans Hsp90 NBD (Candida albicans, UniProt P46598); experiment: biochemical; assay type: binding; details: 0.1 nM Cy3-GdA, C. albicans NBD-Hsp90 (10 nM); for FP signal (raw) / FP signal as fraction of no-compound (0 uM) control: Experiments 1-3
# T2 construct: C. albicans Hsp90 (E7-K218); made in house; host or cells: E. coli Rosetta2
# T2 sequence (P46598 7-218): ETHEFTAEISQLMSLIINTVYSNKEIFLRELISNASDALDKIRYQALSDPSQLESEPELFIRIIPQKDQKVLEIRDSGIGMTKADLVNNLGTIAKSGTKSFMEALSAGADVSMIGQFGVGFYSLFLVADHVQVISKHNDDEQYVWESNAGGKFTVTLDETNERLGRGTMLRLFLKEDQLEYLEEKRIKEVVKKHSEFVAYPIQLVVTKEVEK
# Hsp90 in 3T3 lysate = experiment: FP competition in whole-cell lysate; assay type: binding, mouse; details: 3T3 lysate
# Description: After vortexing, cell lysate was frozen at −80 °C for 2 h, followed by thawing on ice. The vortex-freeze-thaw step was repeated. […] Aliquots were thawed immediately prior to use.
# human Grp94 NBD = human Grp94 NBD (Homo sapiens, UniProt P14625); details: 0.1 nM Cy3-GdA; for FP signal (raw) / FP signal as fraction of no-compound (0 uM) control: Experiments 1-3
# Chain of human Grp94 NBD (P14625 63-337): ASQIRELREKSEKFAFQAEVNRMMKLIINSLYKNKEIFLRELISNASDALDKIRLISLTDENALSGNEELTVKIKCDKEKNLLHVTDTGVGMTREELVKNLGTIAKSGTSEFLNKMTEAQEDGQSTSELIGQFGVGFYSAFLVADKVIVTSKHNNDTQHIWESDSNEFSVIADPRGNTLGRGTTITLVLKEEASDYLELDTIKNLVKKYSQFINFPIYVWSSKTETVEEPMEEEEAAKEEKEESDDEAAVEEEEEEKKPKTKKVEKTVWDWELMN
# Hsp90 in HEPG2 lysate = details: HepG2 lysate
# [2] = Experiments 1-3, one value per experiment
# Chain of human Hsp90 NBD (P08238 1-223): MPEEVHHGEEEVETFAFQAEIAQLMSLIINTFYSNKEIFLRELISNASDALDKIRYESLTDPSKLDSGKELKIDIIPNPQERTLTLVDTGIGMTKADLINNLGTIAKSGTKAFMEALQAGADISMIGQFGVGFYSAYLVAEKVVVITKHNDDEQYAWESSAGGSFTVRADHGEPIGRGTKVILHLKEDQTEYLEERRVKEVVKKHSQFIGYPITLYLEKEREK
smiles,measurement,setting,value
COc1ccc(CON=C2C=CC=CC3OC3CC(C)OC(=O)c3c(O)cc(O)cc3C2)cc1 (mixture of isomers) [CMLD075],EC50,human Hsp90 NBD; [2],1250 nM
same,FP signal (raw),human Hsp90 NBD; Cmpd 0.002 uM,100
same,FP signal as fraction of no-compound (0 uM) control,human Hsp90 NBD; Cmpd 0.002 uM,0.9615
same,FP signal (raw),human Hsp90 NBD; Cmpd 0.004 uM,101
same,FP signal as fraction of no-compound (0 uM) control,human Hsp90 NBD; Cmpd 0.004 uM,0.9712
same,FP signal (raw),human Hsp90 NBD; Cmpd 0.008 uM,101
same,FP signal as fraction of no-compound (0 uM) control,human Hsp90 NBD; Cmpd 0.008 uM,0.9712
same,FP signal (raw),human Hsp90 NBD; Cmpd 0.016 uM,99
same,FP signal as fraction of no-compound (0 uM) control,human Hsp90 NBD; Cmpd 0.016 uM,0.9519
same,FP signal (raw),human Hsp90 NBD; Cmpd 0.063 uM,96
same,FP signal as fraction of no-compound (0 uM) control,human Hsp90 NBD; Cmpd 0.063 uM,0.9231
same,FP signal (raw),human Hsp90 NBD; Cmpd 0.25 uM,85
same,FP signal as fraction of no-compound (0 uM) control,human Hsp90 NBD; Cmpd 0.25 uM,0.8173
same,FP signal (raw),human Hsp90 NBD; Cmpd 0.5 uM,85
same,FP signal as fraction of no-compound (0 uM) control,human Hsp90 NBD; Cmpd 0.5 uM,0.8173
same,FP signal (raw),human Hsp90 NBD; Cmpd 1 uM,59
same,FP signal as fraction of no-compound (0 uM) control,human Hsp90 NBD; Cmpd 1 uM,0.5673
same,FP signal (raw),human Hsp90 NBD; Cmpd 2 uM,28
same,FP signal as fraction of no-compound (0 uM) control,human Hsp90 NBD; Cmpd 2 uM,0.2692
same,FP signal (raw),[1]; 0.002 uM,169
same,"FP signal, fraction of control",[1]; 0.002 uM,0.8989
same,FP signal (raw),[1]; 0.004 uM,160
same,"FP signal, fraction of control",[1]; 0.004 uM,0.8511
same,FP signal (raw),[1]; 0.008 uM,155
same,"FP signal, fraction of control",[1]; 0.008 uM,0.8245
same,FP signal (raw),[1]; 0.01 uM,60
same,"FP signal, fraction of control",[1]; 0.01 uM,0.3226
same,FP signal (raw),[1]; 0.016 uM,142
same,"FP signal, fraction of control",[1]; 0.016 uM,0.7553
same,FP signal (raw),[1]; 0.02 uM,50
same,"FP signal, fraction of control",[1]; 0.02 uM,0.2688
same,FP signal (raw),[1]; 0.063 uM,103
same,"FP signal, fraction of control",[1]; 0.063 uM,0.5479
same,FP signal (raw),[1]; 0.078 uM,24
same,"FP signal, fraction of control",[1]; 0.078 uM,0.129
same,FP signal (raw),[1]; 0.25 uM,60
same,"FP signal, fraction of control",[1]; 0.25 uM,0.3191
same,FP signal (raw),[1]; 0.313 uM,14
same,"FP signal, fraction of control",[1]; 0.313 uM,0.07527
same,FP signal (raw),[1]; 0.5 uM,38
same,"FP signal, fraction of control",[1]; 0.5 uM,0.2021
same,FP signal (raw),[1]; 0.625 uM,7
same,"FP signal, fraction of control",[1]; 0.625 uM,0.03763
same,FP signal (raw),[1]; 1 uM,6
same,"FP signal, fraction of control",[1]; 1 uM,0.03191
same,FP signal (raw),[1]; 2 uM,0
same,"FP signal, fraction of control",[1]; 2 uM,0
same,FP signal (raw),[1]; 2.5 uM,3
same,"FP signal, fraction of control",[1]; 2.5 uM,0.01613
same,FP signal (raw),[1]; 5 uM,0
same,"FP signal, fraction of control",[1]; 5 uM,0
same,FP signal (raw),[1]; 10 uM,-4
same,"FP signal, fraction of control",[1]; 10 uM,-0.02151
same,EC50,"[1]; fit against log conc uM, read-out: EC50",0.102 µM
same,EC50,C. albicans Hsp90 NBD; [2],47.8 nM
same,FP signal (raw),C. albicans Hsp90 NBD; Cmpd 0.002 uM,81
same,FP signal as fraction of no-compound (0 uM) control,C. albicans Hsp90 NBD; Cmpd 0.002 uM,0.8526
same,FP signal (raw),C. albicans Hsp90 NBD; Cmpd 0.004 uM,80
same,FP signal as fraction of no-compound (0 uM) control,C. albicans Hsp90 NBD; Cmpd 0.004 uM,0.8421
same,FP signal (raw),C. albicans Hsp90 NBD; Cmpd 0.008 uM,78
same,FP signal as fraction of no-compound (0 uM) control,C. albicans Hsp90 NBD; Cmpd 0.008 uM,0.8211
same,FP signal (raw),C. albicans Hsp90 NBD; Cmpd 0.016 uM,72
same,FP signal as fraction of no-compound (0 uM) control,C. albicans Hsp90 NBD; Cmpd 0.016 uM,0.7579
same,FP signal (raw),C. albicans Hsp90 NBD; Cmpd 0.063 uM,36
same,FP signal as fraction of no-compound (0 uM) control,C. albicans Hsp90 NBD; Cmpd 0.063 uM,0.3789
same,FP signal (raw),C. albicans Hsp90 NBD; Cmpd 0.25 uM,16
same,FP signal as fraction of no-compound (0 uM) control,C. albicans Hsp90 NBD; Cmpd 0.25 uM,0.1684
same,FP signal (raw),C. albicans Hsp90 NBD; Cmpd 0.5 uM,10
same,FP signal as fraction of no-compound (0 uM) control,C. albicans Hsp90 NBD; Cmpd 0.5 uM,0.1053
same,FP signal (raw),C. albicans Hsp90 NBD; Cmpd 1 uM,7
same,FP signal as fraction of no-compound (0 uM) control,C. albicans Hsp90 NBD; Cmpd 1 uM,0.07368
same,FP signal (raw),C. albicans Hsp90 NBD; Cmpd 2 uM,8
same,FP signal as fraction of no-compound (0 uM) control,C. albicans Hsp90 NBD; Cmpd 2 uM,0.08421
same,FP signal (raw),Hsp90 in 3T3 lysate; 0.01 uM,243
same,"FP signal, fraction of control",Hsp90 in 3T3 lysate; 0.01 uM,0.9681
same,FP signal (raw),Hsp90 in 3T3 lysate; 0.02 uM,243
same,"FP signal, fraction of control",Hsp90 in 3T3 lysate; 0.02 uM,0.9681
same,FP signal (raw),Hsp90 in 3T3 lysate; 0.078 uM,240
same,"FP signal, fraction of control",Hsp90 in 3T3 lysate; 0.078 uM,0.9562
same,FP signal (raw),Hsp90 in 3T3 lysate; 0.313 uM,223
same,"FP signal, fraction of control",Hsp90 in 3T3 lysate; 0.313 uM,0.8884
same,FP signal (raw),Hsp90 in 3T3 lysate; 0.625 uM,206
same,"FP signal, fraction of control",Hsp90 in 3T3 lysate; 0.625 uM,0.8207
same,FP signal (raw),Hsp90 in 3T3 lysate; 2.5 uM,144
same,"FP signal, fraction of control",Hsp90 in 3T3 lysate; 2.5 uM,0.5737
same,FP signal (raw),Hsp90 in 3T3 lysate; 5 uM,102
same,"FP signal, fraction of control",Hsp90 in 3T3 lysate; 5 uM,0.4064
same,FP signal (raw),Hsp90 in 3T3 lysate; 10 uM,52
same,"FP signal, fraction of control",Hsp90 in 3T3 lysate; 10 uM,0.2072
same,EC50,Hsp90 in 3T3 lysate; fit against log conc uM,3.42 µM
same,EC50,human Grp94 NBD; [2],261 nM
same,FP signal (raw),human Grp94 NBD; Cmpd 0.002 uM,93
same,FP signal as fraction of no-compound (0 uM) control,human Grp94 NBD; Cmpd 0.002 uM,0.9208
same,FP signal (raw),human Grp94 NBD; Cmpd 0.004 uM,89
same,FP signal as fraction of no-compound (0 uM) control,human Grp94 NBD; Cmpd 0.004 uM,0.8812
same,FP signal (raw),human Grp94 NBD; Cmpd 0.008 uM,88
same,FP signal as fraction of no-compound (0 uM) control,human Grp94 NBD; Cmpd 0.008 uM,0.8713
same,FP signal (raw),human Grp94 NBD; Cmpd 0.016 uM,85
same,FP signal as fraction of no-compound (0 uM) control,human Grp94 NBD; Cmpd 0.016 uM,0.8416
same,FP signal (raw),human Grp94 NBD; Cmpd 0.063 uM,73
same,FP signal as fraction of no-compound (0 uM) control,human Grp94 NBD; Cmpd 0.063 uM,0.7228
same,FP signal (raw),human Grp94 NBD; Cmpd 0.25 uM,51
same,FP signal as fraction of no-compound (0 uM) control,human Grp94 NBD; Cmpd 0.25 uM,0.505
same,FP signal (raw),human Grp94 NBD; Cmpd 0.5 uM,33
same,FP signal as fraction of no-compound (0 uM) control,human Grp94 NBD; Cmpd 0.5 uM,0.3267
same,FP signal (raw),human Grp94 NBD; Cmpd 1 uM,15
same,FP signal as fraction of no-compound (0 uM) control,human Grp94 NBD; Cmpd 1 uM,0.1485
same,FP signal (raw),human Grp94 NBD; Cmpd 2 uM,11
same,FP signal as fraction of no-compound (0 uM) control,human Grp94 NBD; Cmpd 2 uM,0.1089
same,FP signal (raw),Hsp90 in HEPG2 lysate; 0.01 uM,200
same,"FP signal, fraction of control",Hsp90 in HEPG2 lysate; 0.01 uM,0.9132
same,FP signal (raw),Hsp90 in HEPG2 lysate; 0.02 uM,199
same,"FP signal, fraction of control",Hsp90 in HEPG2 lysate; 0.02 uM,0.9087
same,FP signal (raw),Hsp90 in HEPG2 lysate; 0.078 uM,186
same,"FP signal, fraction of control",Hsp90 in HEPG2 lysate; 0.078 uM,0.8493
same,FP signal (raw),Hsp90 in HEPG2 lysate; 0.313 uM,164
same,"FP signal, fraction of control",Hsp90 in HEPG2 lysate; 0.313 uM,0.7489
same,FP signal (raw),Hsp90 in HEPG2 lysate; 0.625 uM,146
same,"FP signal, fraction of control",Hsp90 in HEPG2 lysate; 0.625 uM,0.6667
same,FP signal (raw),Hsp90 in HEPG2 lysate; 2.5 uM,88
same,"FP signal, fraction of control",Hsp90 in HEPG2 lysate; 2.5 uM,0.4018
same,FP signal (raw),Hsp90 in HEPG2 lysate; 5 uM,53
same,"FP signal, fraction of control",Hsp90 in HEPG2 lysate; 5 uM,0.242
same,FP signal (raw),Hsp90 in HEPG2 lysate; 10 uM,32
same,"FP signal, fraction of control",Hsp90 in HEPG2 lysate; 10 uM,0.1461
same,EC50,Hsp90 in HEPG2 lysate; fit against log conc uM,1.8 µM
